For test [1], the system named is Puccinia recondita. The test can be described thus: Test Example E: Brown rust on wheat. Type of test: in vivo.
For test [2], the system named is Plasmopara viticola. Description: Test Example G: Downy mildew on vine. The class given is in vivo.
The test system of test [3] is Blumeria graminis f. sp. hordei. Description: Test Example D: Powdery mildew on barley. The class given is in vivo.
Test [4] has as its system Phytophthora infestans. Description: whole plant or invertebrate. The class given is in vivo. To be noted: in Solanum lycopersicum.
Test [5] has as its system Alternaia brassicicola. The test can be described thus: Test Example C: Alternaria sooty spot on cabbage. Type of test: in vivo. To be noted: Brassica oleracea.
Test [6] relates to Magnaporthe grisea. The test can be described thus: whole plant or invertebrate. Particulars: Pyricularia oryzae, in Oryza sativa. Type of test: in vivo.
The test system of test [7] is Colletotrichum orbiculare. The test can be described thus: whole plant or invertebrate. Particulars: in Cucumis sativus, read-out: control value, Test H (anthracnose on cucumber).
Description: Seeds of a test plant (cucumber variety: Sagami Hanjiro) were planted and cultivated until the first leaf appeared. In the test, the compounds of the present invention were dissolved into a dimethyl sulfoxide-methanol mixture solution (volume ratio: 9/1), and the resultant solutions were diluted with well water to a concentration of 250 ppm. The thus-obtained dilutions were sprayed to the test plant (2.5 ml/pot). After the dilutions dried, a conidial suspension (2-4×10^5 conidia/ml) of Colletotrichum orbiculare was inoculated to the plant by spraying. After the inoculation, the plant was kept in a mist chamber at room temperature of 20 to 23° C. for about 24 hours to promote the onset of disease. The disease development was investigated 6 to 10 days after the inoculation, and the effectiveness of the dilutions was evaluated.
Disease development in Test Example described above was evaluated in increments of 0.05 by setting 0 as no incidence of disease and 3 as disease development in a plant of untreated group. In addition, control values were calculated using the following equation based on disease development.
Control value=100 {1−(n/3)}
n=Disease development of each treated groups
The subject of test [8] is Botrytis cinerea. Description: Test Example B: Gray mold on tomato. Type of test: in vivo.
The mark [9] stands for this setting: Table 7, Test E, read-out: control value, Test E (brown rust on wheat).
Where [10] appears, read: 250 ppm sprayed (2.5 ml/pot) before inoculation, assessed 7 to 10 days after inoculation, read-out: control value, Test G (downy mildew on vine).
The mark [11] stands for this setting: Table 7, Test D, read-out: control value, Test D (powdery mildew on barley).
[12] abbreviates: read-out: control value, Test F (late blight on tomato).
The mark [13] stands for this setting: Table 7, Test C, read-out: control value, Test C (Alternaria sooty spot on cabbage).
[14] abbreviates: read-out: control value, Test A (blast on rice).
The mark [15] stands for this setting: Table 7, Test B, read-out: control value, Test B (gray mold on tomato).
Setting [16] is: Brown rust on wheat, read-out: Test E control value.
The mark [17] stands for this setting: Downy mildew on vine, 250 ppm sprayed, 2.5 ml/pot, 7 to 10 days after inoculation, read-out: Test G control value.
Setting [18] is: Powdery mildew on barley, read-out: Test D control value.
Setting [19] is: Alternaria sooty spot on cabbage, read-out: Test C control value.
Setting [20] is: Gray mold on tomato, read-out: Test B control value.

Experimental findings from US11178870B2 (priority 2017, dated 2021) are described below.

Read-outs that look alike come from different tables or passages of the source.

For `C#CCOc1cc(F)c(-c2c(-n3cc(Cl)cn3)cc(Cl)c(=O)n2CC)c(F)c1` [compound 201, 3-chloro-5-(4-chloro-1H-pyrazol-1-yl)-6-(2,6-difluoro-4-(propargyloxy)phenyl)-1-ethyl pyridin-2(1H)-one], the pest or weed control at 250 µg/mL is > 50% in test [1] (setting [9]); > 50% in test [3] (setting [11]); < 50% in test [4] (setting [12]); > 50% in test [5] (setting [13]); > 50% in test [6] (setting [14]); > 50% in test [8] (setting [15]). Also, the pest or weed control at 250 ppm is < 50% in test [2] (setting [10]) and > 50% in test [7].

In the case of `CCn1c(-c2ccc(F)cc2F)c(-n2cc(C)cn2)cc(Br)c1=O` [compound 226, 3-bromo-6-(2,4-difluorophenyl)-1-ethyl-5-(4-methyl-1H-pyrazol-1-yl)pyridin-2(1H)-one], the pest or weed control at 250 µg/mL in test [1] (setting [9]) is > 50%; in test [3] (setting [11]), > 50%; in test [4] (setting [12]), < 50%; in test [5] (setting [13]), > 50%; in test [6] (setting [14]), > 50%; in test [8] (setting [15]) it was > 50%. Moreover, the pest or weed control at 250 ppm in test [2] (setting [10]) and in test [7] was > 50% throughout.

`CCn1c(-c2c(F)cc(F)cc2F)c(-n2cc(Cl)cn2)cc(C=O)c1=O` [compound 265, 5-(4-chloro-1H-pyrazol-1-yl)-1-ethyl-2-oxo-6-(2,4,6-trifluorophenyl)-1,2-dihydropyridin-3-carboaldehyde]: the pest or weed control at 250 µg/mL in test [1] (setting [9]) was > 50%; in test [3] (setting [11]), > 50%; in test [4] (setting [12]) it was < 50%; in test [5] (setting [13]), > 50%; in test [6] (setting [14]), < 50%; in test [8] (setting [15]), < 50%. The pest or weed control at 250 ppm in test [2] (setting [10]) and in test [7] was < 50% in each case.

Take `C=CCOc1cc(F)c(-c2c(-n3cc(Cl)cn3)cc(Cl)c(=O)n2CC)c(F)c1` [compound 202, 6-(4-(allyloxy)-2,6-difluorophenyl)-3-chloro-5-(4-chloro-1H-pyrazol-1-yl)-1-ethylpyridin-2(1H)-one]: the pest or weed control at 250 µg/mL was > 50% in test [1] (setting [9]); > 50% in test [3] (setting [11]); < 50% in test [4] (setting [12]); > 50% in test [5] (setting [13]); > 50% in test [6] (setting [14]); > 50% in test [8] (setting [15]). Further, the results for the pest or weed control at 250 ppm in test [2] (setting [10]) and in test [7] were < 50% and > 50%, respectively.

Consider `CCn1c(-c2c(F)cccc2F)c(-c2ocnc2C)cc(Cl)c1=O` [compound 43, 3-chloro-6-(2,6-difluorophenyl)-1-ethyl-5-(4-methyloxazol-5-yl)pyridin-2(1H)-one], for which the pest or weed control at 250 µg/mL in test [1] (setting [16]) is > 50%; in test [3] (setting [18]) it was > 50%; in test [4] (read-out: Test F control value) it was < 50%; in test [5] (setting [19]), > 50%; in test [6] (read-out: Test A control value), > 50%; in test [8] (setting [20]), > 50%. Also, the pest or weed control at 250 ppm in test [2] (setting [17]) was < 50%.

Take `CCn1c(-c2c(F)cc(F)cc2F)c(-n2ncnc2Br)cc(Cl)c1=O` [compound 35, 5-(5-bromo-1H-1,2,4-triazol-1-yl)-3-chloro-1-ethyl-6-(2,4,6-trifluorophenyl)pyridin-2(1H)-one]: the pest or weed control at 250 µg/mL was > 50% in test [1] (setting [16]); > 50% in test [3] (setting [18]); < 50% in test [4] (read-out: Test F control value); > 50% in test [5] (setting [19]); > 50% in test [6] (read-out: Test A control value); > 50% in test [8] (setting [20]). Further, the pest or weed control at 250 ppm in test [2] (setting [17]) was < 50%.

For `CCn1c(-c2c(F)cc(F)cc2F)c(-c2nn(C)cc2Br)cc(Cl)c1=O` [compound 24, 5-(4-bromo-1-methyl-1H-pyrazol-3-yl)-3-chloro-1-ethyl-6-(2,4,6-trifluorophenyl)pyridin-2(1H)-one], the pest or weed control at 250 µg/mL in test [1] (setting [16]) is > 50%; in test [3] (setting [18]), > 50%; in test [4] (read-out: Test F control value) it was < 50%; in test [5] (setting [19]), > 50%; in test [6] (read-out: Test A control value), > 50%; in test [8] (setting [20]), > 50%. Also, the pest or weed control at 250 ppm in test [2] (setting [17]) is > 50%.

`CCn1c(-c2c(F)cc(F)cc2F)c(-c2cnco2)cc(Cl)c1=O` [compound 36, 3-chloro-1-ethyl-5-(oxazol-5-yl)-6-(2,4,6-trifluorophenyl)pyridin-2(1H)-one]: the pest or weed control at 250 µg/mL in test [1] (setting [16]) is > 50%; in test [3] (setting [18]), < 50%; in test [4] (read-out: Test F control value), < 50%; in test [5] (setting [19]) it was > 50%; in test [6] (read-out: Test A control value) it was > 50%; in test [8] (setting [20]), < 50%. Besides, the pest or weed control at 250 ppm in test [2] (setting [17]) was < 50%.

Regarding `CCn1c(-c2c(F)cc(F)cc2F)c(-n2cc(Br)cn2)cc(Cl)c1=O` [compound 70, 5-(4-bromo-1H-pyrazol-1-yl)-3-chloro-1-ethyl-6-(2,4,6-trifluorophenyl)pyridin-2(1H)-one], the pest or weed control at 250 µg/mL is > 50% in test [1] (setting [16]); > 50% in test [3] (setting [18]); < 50% in test [4] (read-out: Test F control value); > 50% in test [5] (setting [19]); > 50% in test [6] (read-out: Test A control value); > 50% in test [8] (setting [20]). In test [2] (setting [17]), the pest or weed control at 250 ppm was < 50%.

Consider `CCn1c(-c2c(F)cc(F)cc2F)c(-n2cnc(Cl)c2Cl)cc(Cl)c1=O` [compound 138, 3-chloro-5-(4,5-dichloro-1H-imidazol-1-yl)-1-ethyl-6-(2,4,6-trifluorophenyl)pyridin-2(1H)-one], for which the pest or weed control at 250 µg/mL is > 50% in test [1] (setting [16]); > 50% in test [3] (setting [18]); < 50% in test [4] (read-out: Test F control value); > 50% in test [5] (setting [19]); > 50% in test [6] (read-out: Test A control value); > 50% in test [8] (setting [20]). Further, the pest or weed control at 250 ppm in test [2] (setting [17]) is < 50%.

Regarding `CCn1c(-c2c(F)cc(F)cc2F)c(-n2cc(Cl)cn2)cc(I)c1=O` [compound 140, 5-(4-chloro-1H-pyrazol-1-yl)-1-ethyl-3-iodo-6-(2,4,6-trifluoro-phenyl)pyridin-2(1H)-one], the pest or weed control at 250 µg/mL is > 50% in test [1] (setting [16]); > 50% in test [3] (setting [18]); < 50% in test [4] (read-out: Test F control value); > 50% in test [5] (setting [19]); < 50% in test [6] (read-out: Test A control value); > 50% in test [8] (setting [20]). In addition, the pest or weed control at 250 ppm in test [2] (setting [17]) is < 50%.

`CCn1c(-c2c(F)cc(F)cc2F)c(-c2ocnc2Cl)cc(Cl)c1=O` [compound 112, 3-chloro-5-(4-chlorooxazol-5-yl)-1-ethyl-6-(2,4,6-trifluoro-phenyl)pyridin-2(1H)-one]: the pest or weed control at 250 µg/mL in test [1] (setting [16]) is > 50%; in test [3] (setting [18]), > 50%; in test [4] (read-out: Test F control value) it was < 50%; in test [5] (setting [19]), > 50%; in test [6] (read-out: Test A control value), > 50%; in test [8] (setting [20]), > 50%. Moreover, the pest or weed control at 250 ppm in test [2] (setting [17]) was > 50%.

As to `CCn1c(-c2c(F)cc(F)cc2F)c(-n2cccn2)ccc1=O` [compound 26, 1-ethyl-5-(1H-pyrazol-1-yl)-6-(2,4,6-trifluorophenyl)pyridin-2(1H)-one], the pest or weed control at 250 µg/mL in test [1] (setting [16]) is > 50%; in test [3] (setting [18]), > 50%; in test [4] (read-out: Test F control value) it was < 50%; in test [5] (setting [19]) it was > 50%; in test [6] (read-out: Test A control value), > 50%; in test [8] (setting [20]) it was > 50%. Moreover, the pest or weed control at 250 ppm in test [2] (setting [17]) is < 50%.

Take `CCn1c(-c2c(F)cc(F)cc2F)c(-c2ccnn2C)cc(Cl)c1=O` [compound 20, 3-chloro-1-ethyl-5-(1-methyl-1H-pyrazol-5-yl)-6-(2,4,6-trifluorophenyl)pyridin-2(1H)-one]: the pest or weed control at 250 µg/mL was > 50% in test [1] (setting [16]); > 50% in test [3] (setting [18]); < 50% in test [4] (read-out: Test F control value); > 50% in test [5] (setting [19]); > 50% in test [6] (read-out: Test A control value); > 50% in test [8] (setting [20]). In addition, the pest or weed control at 250 ppm in test [2] (setting [17]) was < 50%.

In the case of `CCn1c(-c2c(F)cccc2F)c(-c2c[nH]cc2C#N)cc(Cl)c1=O` [compound 88, 4-(5-chloro-1-ethyl-6-oxo-2-(2,6-difluorophenyl)-1,6-dihydro-pyridin-3-yl)-1H-pyrrol-3-carbonitrile], the pest or weed control at 250 µg/mL is < 50% in test [1] (setting [16]); < 50% in test [3] (setting [18]); < 50% in test [4] (read-out: Test F control value); > 50% in test [5] (setting [19]); < 50% in test [6] (read-out: Test A control value); < 50% in test [8] (setting [20]). In addition, the pest or weed control at 250 ppm in test [2] (setting [17]) was < 50%.
